Reference: patent US11034710B2, “CDK9 inhibitors and polymorphs thereof for use as agents for treatment of cancer” (SUMITOMO DAINIPPON PHARMA ONCOLOGY, INC., priority 2018, dated 2021)

Tests used:
[1] = Four-week stability of Form B obtained using various Step 4.1 reaction conditions (40° C./75% RH, HPLC); type: physicochemical; conditions: 40° C. ± 2° C., 75 ± 5% RH, sealed vial
From the text: The results of the stability study appear in Table 21.

[2] = Dynamic vapor sorption (DVS) test of amorphous Form A; type: physicochemical; conditions: 80% relative humidity
[3] = Stability study of amorphous Form A (decomposition to compound A-2); type: physicochemical
[4] = Phase I study: plasma pharmacokinetics of compound of structure (I) and alvocidib; type: in vivo, human
From the text: Patients with advanced metastatic or progressive solid tumors who were refractory to, or intolerant of, established therapy known to provide clinical benefit for their condition were enrolled. Cohorts of 3-6 patients each received escalating doses of compound of structure (I) using a modified Fibonacci dose escalation approach. Once the optimal dose has been established, additional patients may be enrolled to confirm safety and to explore efficacy.
This is an ongoing Phase 1, open-label, dose-escalation, safety, PK and PD study. The proposed starting dose and schedule for oral compound of structure (I) was a 1-mg flat dose once daily (QD) for 14 days followed by a 7-day drug-free recovery period (each cycle=21 days). In the absence of dose-limiting toxicities (DLTs) in the first cohort of at least 3 patients, the dose was increased using a modified Fibonacci dose escalation scheme, and BID dosing commenced according to the dose escalation schedule described in Table 28. The first patient in cohort 6 has been enrolled at 8 mg compound of structure (I) BID. The baseline demographics of the first 14 patients enrolled in the study are described in Table 26.
Plasma PK parameters of compound of structure (I) and alvocidib were evaluated in Cohorts 1-5 at specific timepoints during the study. Blood was collected from patients in Cohorts 1-5 according to the pharmacokinetic sampling schedule described in Table 29.
PK parameters were estimated using standard noncompartmental methods. Actual sample collection times were used rather than scheduled collection times. Plasma concentrations below the limit of quantification were treated as 0. Imbedded missing plasma concentrations (e.g., missing values between two observed values) were estimated using linear […]. This is consistent with using the trapezoidal rule to calculate AUC. Other missing plasma concentrations were excluded from calculations to estimate PK parameters.

[5] = system: patients with advanced solid tumors; test: Phase I study: safety, dose-limiting toxicities and treatment-emergent adverse events; type: in vivo, human
From the text: Patients with advanced metastatic or progressive solid tumors who were refractory to, or intolerant of, established therapy known to provide clinical benefit for their condition were enrolled. Cohorts of 3-6 patients each received escalating doses of compound of structure (I) using a modified Fibonacci dose escalation approach. Once the optimal dose has been established, additional patients may be enrolled to confirm safety and to explore efficacy. This is an ongoing Phase 1, open-label, dose-escalation, safety, PK and PD study. The proposed starting dose and schedule for oral compound of structure (I) was a 1-mg flat dose once daily (QD) for 14 days followed by a 7-day drug-free recovery period (each cycle=21 days). In the absence of dose-limiting toxicities (DLTs) in the first cohort of at least 3 patients, the dose was increased using a modified Fibonacci dose escalation scheme, and BID dosing commenced according to the dose escalation schedule described in Table 28. The first patient in cohort 6 has been enrolled at 8 mg compound of structure (I) BID. The baseline demographics of the first 14 patients enrolled in the study are described in Table 26. […] DLT was defined as any one of the following events observed in cycle 1, regardless of investigator attribution, unless there was a clear alternative explanation: • 1. Grade 3 or greater febrile neutropenia • 2. Grade 4 neutropenia for ≥7 consecutive days • 3. Grade 4 thrombocytopenia or Grade 3 thrombocytopenia with clinically significant bleeding or that requires a platelet transfusion • 4. Grade 3 or 4 nonhematologic AEs will be considered dose limiting, regardless of duration aside from the specific parameters described herein • 5. Grade 4 nausea, vomiting, or diarrhea, regardless of duration • 6. […] Any Grade ≥3 elevations in creatinine • 10. Any Grade 5 toxicity

[6] = patients (% of N = 14), oral dosing, advanced solid tumors

In the case of `CN1CCC(c2c(OP(=O)(O)O)cc(O)c3c(=O)cc(-c4ccccc4Cl)oc23)C(O)C1.Cl` (stereo not shown) [Form A-11], the A-2 ([1]; 7 days ± 1 day) is reported as 6.6%, the “HPLC Purity of A-5” value ([1]; 7 days ± 1 day) is reported as 91.3% and the A-2 ([1]; 14 days ± 1 day) is reported as 13.7%. The “HPLC Purity of A-5” value ([1]; 14 days ± 1 day) was 84.12%, the A-2 ([1]; 21 days ± 1 day) was 19.0% and the “HPLC Purity of A-5” value ([1]; 21 days ± 1 day) was 78.5%. The A-2 ([1]; 28 days ± 1 day) was 22.2%, the “HPLC Purity of A-5” value ([1]; 28 days ± 1 day) was 75.0% and the A-2 ([1]; Initial) was 1.02%. The “HPLC Purity of A-5” value ([1]; Initial) was 97.0%.

In the case of `CN1CC[C@H](c2c(OP(=O)(O)O)cc(O)c3c(=O)cc(-c4ccccc4Cl)oc23)[C@H](O)C1` [Form A], the “weight of water taken in (DVS), hygroscopicity” value [2] is reported as 12.5%, the decomposition ([3]; 40° C. and 75% relative humidity for one week) is reported as “accelerated decomposition” and the “degradation to compound A-2” value ([3]; after 10 days at room temperature) is reported as 6.85%. The degradant trends ([3]; stored at −20° C.) was “no degradant trends”, the A-2 ([1]; 7 days ± 1 day) was 0.88% and the “HPLC Purity of A-5” value ([1]; 7 days ± 1 day) was 98.6%. The A-2 ([1]; 14 days ± 1 day) was 2.2%, the “HPLC Purity of A-5” value ([1]; 14 days ± 1 day) was 97.5% and the A-2 ([1]; Initial) was 0.44%. For the same compound, the “HPLC Purity of A-5” value ([1]; Initial) was 99.2%.

For `CN1CC[C@H](c2c(O)cc(O)c3c(=O)cc(-c4ccccc4Cl)oc23)[C@H](O)C1` [alvocidib, 2-(2-chlorophenyl)-5,7-dihydroxy-8-[(3S,4R)-3-hydroxy-1-methylpiperidin-4-yl]chromen-4-one], the “Tmax” value ([4]; Cohort 5, 6 mg BID oral Formulation No. 401-01, Cycle 1 Day 1, Mean of subjects 501-503) was 60 min, the “Tmax” value ([4]; Cohort 5, 6 mg BID oral Formulation No. 401-01, Cycle 1 Day 1, Subject 501) was 30 min and the “Tmax” value ([4]; Cohort 5, 6 mg BID oral Formulation No. 401-01, Cycle 1 Day 1, Subject 502) was 120 min. The “Tmax” value ([4]; Cohort 5, 6 mg BID oral Formulation No. 401-01, Cycle 1 Day 1, Subject 503) was 30 min, the “Tmax” value ([4]; Cohort 5, 6 mg BID oral Formulation No. 401-01, Cycle 1 Day 14, Mean of subjects 501-503) was 60 min and the “Tmax” value ([4]; Cohort 5, 6 mg BID oral Formulation No. 401-01, Cycle 1 Day 14, Subject 501) was 30 min. The “Tmax” value ([4]; Cohort 5, 6 mg BID oral Formulation No. 401-01, Cycle 1 Day 14, Subject 502) was 120 min and the “Tmax” value ([4]; Cohort 5, 6 mg BID oral Formulation No. 401-01, Cycle 1 Day 14, Subject 503) was 30 min.

For `CN1CC[C@H](c2c(OP(=O)(O)O)cc(O)c3c(=O)cc(-c4ccccc4Cl)oc23)[C@H](O)C1` [compound of structure (I), 2-(2-chlorophenyl)-5-hydroxy-8-((3S,4R)-3-hydroxy-1-methylpiperidin-4-yl)-4-oxo-4H-chromen-7-yl dihydrogen phosphate], the “toxicity observed to date” value ([5]; oral, Cohorts to date, patients with advanced solid tumors) was “no unexplained toxicity, and no evidence of dose-limiting diarrhea or neutropenia”, the “Treatment-emergent adverse events grade ≥ 3: Anemia, Grade 3” value [5, 6] was 1 (7%) and the “Treatment-emergent adverse events grade ≥ 3: Chest Pain, Grade 3” value [5, 6] was 1 (7%). For the same compound, the “Treatment-emergent adverse events grade ≥ 3: Haematuria, Grade 3” value [5, 6] was 1 (7%), the “Treatment-emergent adverse events grade ≥ 3: Hypotension, Grade 3” value [5, 6] was 1 (7%) and the “Treatment-emergent adverse events grade ≥ 3: Hypoxia, Grade 3” value [5, 6] was 1 (7%). For the same compound, the “Treatment-emergent adverse events grade ≥ 3: Malignant Pleural Effusion, Grade 3” value [5, 6] was 1 (7%), the “Treatment-emergent adverse events grade ≥ 3: Pain, Grade 3” value [5, 6] was 1 (7%) and the “Treatment-emergent adverse events grade ≥ 3: Swelling, Grade 3” value [5, 6] was 1 (7%).
